Reference: patent publication US7236891B2, “Methods of determining polypeptide structure and function” (Queen's University at Kingston, priority 2001, dated 2007)
“Also recorded” adds a separate entry of the source. Where two headings read alike, the source gives them in different places. Square brackets hold non-standard residues; d marks the D form. Peptide text beside a SMILES is read from it. Nle = CCCC[C@H](N)C(=O)O

How the values were obtained:
[1] = molecular target: T1, μI-II (domain I-II construct from μ-calpain) (Rattus norvegicus, UniProt P97571); test: Proteolytic activity of μI-II against synthetic peptide substrate SLY-MCA; assay type: biochemical; conditions: for inhibition of μI-II protease activity: qualitative, data not shown
T1 construct: extended from residue 29 (MG^29RHENA-) to residue 356; added N-terminal Met (N); made in house; host or cells: E. coli BL21 (DE3)
T1 sequence (P97571 29-356): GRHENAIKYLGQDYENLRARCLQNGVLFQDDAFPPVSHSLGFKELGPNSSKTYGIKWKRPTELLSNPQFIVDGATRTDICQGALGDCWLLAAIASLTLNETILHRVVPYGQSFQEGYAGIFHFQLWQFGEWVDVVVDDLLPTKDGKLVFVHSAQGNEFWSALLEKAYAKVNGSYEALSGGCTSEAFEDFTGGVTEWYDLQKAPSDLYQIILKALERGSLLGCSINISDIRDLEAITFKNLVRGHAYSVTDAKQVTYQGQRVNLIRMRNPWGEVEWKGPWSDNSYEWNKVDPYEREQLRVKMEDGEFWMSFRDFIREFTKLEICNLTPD
Protocol: (§1) Proteolytic digestion of the C105S m-calpain heterodimer was performed at 22° C. in a final volume of less than 150 μL, in 50 mM HEPES pH 7.6, 1 mg/mL calpain, 0.15 mg/mL μI-II, without divalent cations, or with 1 mM CaCl2 or 1 mM MgCl2. Autolysis of μI-II was performed under the same conditions but instead of the C105S m-calpain substrate, 2.5 mg/mL of μI-II was used. The reaction was stopped by the addition of 2×SDS sample buffer. At specific time intervals aliquots were removed and analyzed by SDS-PAGE using a 9% gel. Control reactions lacked the protease domain I–II. The activity of μI-II against the peptide substrate SLY-MCA (Sigma) was also tested in 50 mM HEPES pH 7.6, 200 mM NaCl, 1 mM DTT, 5–30 mM divalent cation (CaCl2, MgCl2, MnCl2, or ZnCl2), 0.75 mM SLY-MCA, 2.5 μM μI-II, in a final volume of 3 mL. MCA release was monitored in a LS50B Perkin Elmer luminescence spectrometer set with excitation and the emission wavelengths at 360 nm and 460 nm, respectively. Steady-state kinetics analysis was performed under the same buffer conditions but in the presence of 0.5 mM CaCl2, by varying SLY-MCA concentration from 0.02–1.5 mM. The steady-state parameters (kcat and KM) were obtained from the Michaelis-Menten plot.

μI-II (C115S) [2] = molecular target: T2, μI-II (C115S) (Rattus norvegicus, UniProt P97571, C115S); test: Intrinsic tryptophan fluorescence of μI-II during Ca2+ titration; assay type: binding; conditions: for ability to substitute for CaCl2 in the intrinsic tryptophan fluorescence change: concentrations up to 30 mM
T2 construct: extended from residue 29 (MG^29RHENA-) to residue 356; added N-terminal Met (N); made in house; host or cells: E. coli BL21 (DE3)
T2 sequence (P97571 29-356 C115S): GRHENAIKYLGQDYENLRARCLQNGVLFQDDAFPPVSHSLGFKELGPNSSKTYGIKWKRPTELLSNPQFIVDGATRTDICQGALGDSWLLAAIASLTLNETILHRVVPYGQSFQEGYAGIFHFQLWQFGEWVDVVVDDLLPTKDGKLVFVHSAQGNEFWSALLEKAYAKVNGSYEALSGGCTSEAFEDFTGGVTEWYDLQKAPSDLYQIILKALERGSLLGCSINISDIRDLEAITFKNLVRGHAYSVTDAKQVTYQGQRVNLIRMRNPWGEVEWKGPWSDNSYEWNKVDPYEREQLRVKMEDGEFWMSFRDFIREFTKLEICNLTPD
Protocol: Intrinsic tryptophan fluorescence measurements were performed in a Perkin Elmer LS50B fluorescence spectrophotometer at 22° C. using a stirrer-adapted 4 mL cuvette (Helmma). Excitation and emission wavelength were set at 280 nm and 340 nm, respectively. The reaction buffer was the same as that used for activity measurements against SLY-MCA, and the protein concentration was 0.65 μM. […] CaCl2 (50 mM) dissolved in the reaction buffer was pumped continuously (4 μL/min, Harvard Apparatus pump 22) using a 250 μL microsyringe (Hamilton-microliter 1000 series gastight) through a tube into the cuvette. The reaction mixture was vigorously mixed using the internal magnetic stirrer of the fluorimeter. The fluorescence intensity was corrected for dilution, and the normalised data was fitted to the Hill equation y=x^n/k^n+x^n), where y is the fraction of maximum intensity change, k=[Ca^2+]0.5 (the value of [Ca^2+] at which half-maximum intensity change is observed, n is the Hill coefficient, and x is [Ca^2+]. Intrinsic tryptophan fluorescence measurements were also performed under the same buffer conditions but substituting for CaCl2, either MgCl2, MnCl2, or ZnCl2 up to 30 mM. To test the aggregation state of the domain I–II constructs, relative 90° light scattering was monitored under the same reaction conditions by setting both the excitation and emission wavelength of the spectrophotometer to 320 nm. No significant aggregation was detected even at the highest CaCl2 concentration (30 mM) tested.

intact μ-calpain = molecular target: T3, intact μ-calpain (Homo sapiens, UniProt P07384); conditions: reported values; read-out: Ca2+ for half-maximal activation of intact μ-calpain; cited from earlier work
T3 sequence (P07384 1-714): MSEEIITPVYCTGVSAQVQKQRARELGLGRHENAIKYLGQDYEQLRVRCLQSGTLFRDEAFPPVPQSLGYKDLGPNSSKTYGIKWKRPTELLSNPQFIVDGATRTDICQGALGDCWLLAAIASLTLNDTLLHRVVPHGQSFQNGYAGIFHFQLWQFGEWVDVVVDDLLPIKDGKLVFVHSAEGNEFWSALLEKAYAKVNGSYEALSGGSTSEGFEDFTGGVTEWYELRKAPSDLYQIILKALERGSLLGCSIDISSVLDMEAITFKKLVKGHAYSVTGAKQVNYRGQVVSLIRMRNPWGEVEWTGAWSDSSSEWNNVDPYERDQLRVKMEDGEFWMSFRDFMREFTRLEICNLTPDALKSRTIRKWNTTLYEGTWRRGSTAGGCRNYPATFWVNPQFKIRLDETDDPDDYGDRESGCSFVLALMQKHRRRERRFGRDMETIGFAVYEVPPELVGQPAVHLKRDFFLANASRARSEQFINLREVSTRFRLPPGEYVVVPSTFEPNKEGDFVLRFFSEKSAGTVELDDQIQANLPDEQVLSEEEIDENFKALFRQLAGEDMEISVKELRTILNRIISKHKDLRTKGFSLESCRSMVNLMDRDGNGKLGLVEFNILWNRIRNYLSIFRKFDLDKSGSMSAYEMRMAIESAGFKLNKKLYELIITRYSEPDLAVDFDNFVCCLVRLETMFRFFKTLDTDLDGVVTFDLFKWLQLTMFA
T3 sequence (P04632 1-268 partner): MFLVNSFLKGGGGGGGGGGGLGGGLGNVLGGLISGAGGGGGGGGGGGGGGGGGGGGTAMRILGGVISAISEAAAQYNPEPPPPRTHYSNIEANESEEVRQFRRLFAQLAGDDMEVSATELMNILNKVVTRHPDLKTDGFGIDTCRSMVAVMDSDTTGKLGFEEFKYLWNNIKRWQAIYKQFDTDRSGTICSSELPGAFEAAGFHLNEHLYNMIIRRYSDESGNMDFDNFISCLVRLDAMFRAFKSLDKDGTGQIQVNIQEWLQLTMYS

μI-II (C115S) [3] = molecular target: T2, μI-II (C115S); test: Intrinsic tryptophan fluorescence of μI-II during Ca2+ titration; assay type: binding; conditions: read-out: Ca2+ requirement for activation of μI-II
μI-II [4] = molecular target: T4, μI-II (Rattus norvegicus, UniProt P97571); test: Proteolysis of inactive C105S m-calpain heterodimer by μI-II; assay type: biochemical; conditions: 1 mM MgCl2
T4 construct: extended from residue 29 (MG^29RHENA-) to residue 356; added N-terminal Met (N); made in house; host or cells: E. coli BL21 (DE3)
T4 sequence (P97571 29-356): as the sequence (P97571 29-356) above
Protocol: as §1

μI-II [5] = molecular target: T4, μI-II; test: Autolysis of μI-II in 1 mM CaCl2 (SDS-PAGE); conditions: 1 mM CaCl2, 20 hours
Protocol: as §1

With `CC(C)C[C@H](NC(=O)[C@H]1O[C@@H]1C(=O)O)C(=O)NCCCCN=C(N)N` (relative stereo) [E64, trans-epoxysuccinyl-L-leucilamido(4-guanidino)-butane] the “SLY-MCA hydrolysis by E64-reacted μI-II (μI-II-E64)” value ([1]; C115 μI-II reacted with E64 in 5 mM CaCl2) was “unable to hydrolyse SLY-MCA”, the “inhibition of μI-II protease activity” value [1] was “abolished; also recorded: inhibited” and the “effect on W298 fluorescence of μI-II” value (μI-II (C115S) [2]; μI-II-E64 complex) was “quenching”.
With `[Ca+2].[Cl-].[Cl-]` [CaCl2] the “CaCl2 concentration at which the fluorescence increase was >99% complete” value (μI-II (C115S) [2]) was about 500 µM, the “CaCl2 concentration at which the fluorescence increase was first noticeable” value (μI-II (C115S) [2]) was about 5 µM and the “total increase in the fluorescence intensity” value (μI-II (C115S) [2]; CaCl2 titration) was about 36.8±0.5%. For the same compound, the Hill coefficient (μI-II (C115S) [2]; CaCl2 titration fitted to the Hill equation) was 2.72±0.42, the EC50 (μI-II (C115S) [2]; CaCl2 titration, excitation 280 nm, emission 340 nm, read-out: half-maximal change in intrinsic tryptophan fluorescence) was 41.8 ± 7.1 µM and the EC50 (intact μ-calpain) was 5 to 50 µM. For the same compound, the EC50 (μI-II (C115S) [3]) was about 40 µM.
With `O=C(O)CN(CCN(CC(=O)O)CC(=O)O)CC(=O)O` [EDTA, reference compound] the “reversal of the Ca2+-induced fluorescence change” value (μI-II (C115S) [2]; data not shown) was “completely reversed”.
In the case of `[Cl-].[Cl-].[Mg+2]` [MgCl2], the “ability to substitute for CaCl2 in the intrinsic tryptophan fluorescence change” value (μI-II (C115S) [2]) is reported as “unable to substitute” and the “proteolysis of C105S m-calpain by μI-II when substituted for Ca2+” value (μI-II [4]) is reported as “no proteolysis”.
For `[Cl][Mn][Cl]` [MnCl2], the “ability to substitute for CaCl2 in the intrinsic tryptophan fluorescence change” value (μI-II (C115S) [2]) was “unable to substitute”.
In the case of `[Cl-].[Cl-].[Zn+2]` [ZnCl2], the “ability to substitute for CaCl2 in the intrinsic tryptophan fluorescence change” value (μI-II (C115S) [2]) is reported as “unable to substitute”.
For `CCCC[C@@H](C=O)NC(=O)[C@H](CC(C)C)NC(=O)[C@H](CC(C)C)NC(C)=O` [calpain inhibitor I] (Ac-Leu-Leu-[Nle]-aldehyde), the “inhibition of μI-II protease activity” value [1] was “abolished; also recorded: inhibited”.
With `CC(=O)N[C@@H](CC(C)C)C(=O)N[C@@H](CC(C)C)C(=O)N[C@H](C=O)CCCNC(=N)N` [leupeptin] the “inhibition of μI-II protease activity” value [1] was “abolished; also recorded: inhibited”.
For “μI-II: recombinant protease core, domains I and II (residues 29-356) of rat μ-calpain with C-terminal His tag”, the “catalytic efficiency relative to the full enzyme” value ([1]; SLY-MCA digestion) was about 2%, the “decrease in turnover (kcat) compared to intact m-calpain” value ([1]; SLY-MCA digestion) was 35 fold and the “μI-II still present after autodigestion” value (μI-II [5]) was “Over 50%”.
